# Where two headings read alike, the source gives them in different places.
# Tests used:
# [1] = antiallergic activity (general statement); settings: compared with coumarin derivatives of Japanese Publication No. 64273/1975
# [2] = acute toxicity, oral, in mice; assay type: in vivo; settings: mouse, in vivo, po
# Method: Moreover, the introduction of substituent groups such as an alkoxyl group, an alkenyloxy group and hydroxyl group to the 5, 6, 7 or 8 position of the coumarin ring brings the decrease of toxicity.
# With respect to the present 3-(1H-tetrazol-5-yl)coumarin derivatives, there was tested acute toxicity in mice.
# After normal female Slc: ddy mice 4 weeks old were purchased and fed preliminarily in this lavoratory for a week, these mice weighing 25-27 g. were used in the test. The present compounds to be tested, were suspended in a 10% gum arabic solution and administered orally […]. body weight to mice. Each dose level was given to a group of ten animals and the survivors were kept under observation for 6 days. The numbers of dead animals were counted and the LD50 values in mg./kg. body weight were calculated by the method of Litchfield-Wilcoxon.
# [3] = test system: passive cutaneous anaphylaxis (PCA) mediated by homocytotropic antibodies (HTA); assay: passive cutaneous anaphylaxis (PCA) test, oral, in rats; assay type: in vivo, rat (Wistar); settings: Rattus norvegicus
# Method: With respect to the present 3-(1H-tetrazol-5-yl)coumarin derivatives, there was tested antiallergic activity concerning passive cutaneous anaphylaxis (PCA) mediated by homocytotropic antibodies (HTA) in rats.
# (i) Preparation of antisera
# 2,4-Dinitrophenyl-coupled ascaris extract (DNP-As) used as antigen, was prepared according to the methods of Strejan et al [cf. J. Immunol., Vol. 98, 893(1967)] and Eisen [cf. J. Amer. Chem. Soc., Vol. 75. 4593(1953)]. Antisera containing HTA were prepared in rats according to the method of Tada and Okumura [cf. J. Immunol., Vol. 106, 1002(1971)] as follows:
# Female wister rats weighing 180 to 200 g. were splenectomized and several days later immunized by injecting into all four footpads a total of 1 mg. of DNP-As mixed with 10^10 Bordetella pertussis. After 5 days, 0.5 mg. of DNP-As alone was injected subcutaneously into the back of rats. Eight days after the first immunization, blood was collected by aortic puncture under ether anaesthesea and antisera obtained by these procedures were pooled and stored at -80° C.
# The titer of the pooled autiserum was determined in rats by the 72 hr. PCA which method was described in the following item (ii), i.e. the highest dilution of antiserum producing a diameter of approximately 5 mm. was usually 1:500.
# (ii) Assessment of PCA in rats
# Normal wister rats weighing 140 to 160 g. were sensitized passively by injection intradermal on the shaved back skin 0.05 ml. of the diluted antisera (1:30). After 72 hours, the animals were injected intravenously 1 ml. of physiological salt solution containing 2 mg. DNP-As and 2.5 mg. Evans' blue.
# The present compounds to be tested were given orally 30 minutes before antigen challenge. The animals were exsanguinated 30 minutes after challenge with the antigens and the skins were exfoliated. The intensities of PCA were evaluated by measuring the amount of leaked dye. The amount of dye leaked as a result of PCA was extracted according to the method of Harada et al [cf. Jpn. J. Allergol., Vol. 15, 1(1966)] and measured photometrically.
# [4] = test system: experimental asthma; assay: model of experimental asthma in animals; assay type: in vivo; settings: oral administration
# [5] = LD50 (50% lethal dose), Table 1, orally in mice
# [6] = po, read-out: MED (minimum effective dose)
# [7] = Table 4, oral, female Slc: ddy mice, 6 days observation, Litchfield-Wilcoxon, read-out: LD50
# [8] = read-out: MED (minimum effect dose)
# [9] = Table 3, oral 30 minutes before antigen challenge, rats, lowest dose significantly decreasing leaked dye vs control, read-out: MED (minimum effect dose)
smiles,measurement,setting,value
O=c1oc2ccccc2cc1-c1nnn[nH]1,antiallergic activity,[1],stronger antiallergic activity
"Cc1c(-c2nnn[nH]2)c(=O)oc2c(Cl)cccc12 [Compound I, reference compound]",LD50 at 144 h,[2]; [5],1040 mg/kg
same,minimal effective dose,[3]; [6],6.25 mg/kg
"CCCCCOc1cccc2cc(-c3nnn[nH]3)c(=O)oc12 [Example 1, 8-n-Pentyloxy-3-(1H-tetrazol-5-yl)coumarin]",LD50 at 144 h,[2]; [5],1330 mg/kg
same,LD50 at 144 h,[2]; [7],1330 mg/kg
same,minimal effective dose,[3]; [6],1.56 mg/kg
same,minimal effective dose,[3]; [8],1.56 mg/kg
"CCCCOc1cc(C)cc2cc(-c3nnn[nH]3)c(=O)oc12 [Example 2, 8-n-Butoxy-6-methyl-3-(1H-tetrazol-5-yl)coumarin]",LD50 at 144 h,[2]; [5],1870 mg/kg
same,LD50 at 144 h,[2]; [7],1870 mg/kg
same,minimal effective dose,[3]; [6],0.39 mg/kg
same,minimal effective dose,[3]; [8],0.39 mg/kg
"COc1cccc2cc(-c3nnn[nH]3)c(=O)oc12 [Example 3, 8-Methoxy-3-(1H-tetrazol-5-yl)coumarin]",LD50 at 144 h,[2]; [7],2000 to 3000 mg/kg
same,minimal effective dose,[3]; [9],6.25 mg/kg
"CCOc1cccc2cc(-c3nnn[nH]3)c(=O)oc12 [Example 4, 8-Ethoxy-3-(1H-tetrazol-5-yl)coumarin]",LD50 at 144 h,[2]; [5],2500 mg/kg
same,LD50 at 144 h,[2]; [7],2500 mg/kg
same,minimal effective dose,[3]; [6],6.25 mg/kg
same,minimal effective dose,[3]; [8],6.25 mg/kg
"CCCOc1cccc2cc(-c3nnn[nH]3)c(=O)oc12 [Example 5, 8-n-Propoxy-3-(1H-tetrazol-5-yl)coumarin]",LD50 at 144 h,[2]; [7],2000 to 3000 mg/kg
same,minimal effective dose,[3]; [9],6.25 mg/kg
"CC(C)Oc1cccc2cc(-c3nnn[nH]3)c(=O)oc12 [Example 6, 8-Isopropoxy-3-(1H-tetrazol-5-yl)coumarin]",LD50 at 144 h,[2]; [5],2250 mg/kg
same,LD50 at 144 h,[2]; [7],2250 mg/kg
same,minimal effective dose,[3]; [6],1.56 mg/kg
same,minimal effective dose,[3]; [8],1.56 mg/kg
"CCCOc1ccc2cc(-c3nnn[nH]3)c(=O)oc2c1 [Example 7, 7-n-Propoxy-3-(1H-tetrazol-5-yl)coumarin]",LD50 at 144 h,[2]; [7],2000 to 3000 mg/kg
same,minimal effective dose,[3]; [9],6.25 mg/kg
"CCCCOc1cccc2cc(-c3nnn[nH]3)c(=O)oc12 [Example 8, 8-n-Butoxy-3-(1H-tetrazol-5-yl)coumarin]",LD50 at 144 h,[2]; [5],2380 mg/kg
same,LD50 at 144 h,[2]; [7],2380 mg/kg
same,minimal effective dose,[3]; [6],1.56 mg/kg
same,minimal effective dose,[3]; [8],1.56 mg/kg
"CC(C)CCOc1cccc2cc(-c3nnn[nH]3)c(=O)oc12 [Example 9, 8-Isopentyloxy-3-(1H-tetrazol-5-yl)coumarin]",LD50 at 144 h,[2]; [7],1000 to 2000 mg/kg
same,minimal effective dose,[3]; [9],0.39 mg/kg
"CCCCCCOc1cccc2cc(-c3nnn[nH]3)c(=O)oc12 [Example 10, 8-n-Hexyloxy-3-(1H-tetrazol-5-yl)coumarin]",LD50 at 144 h,[2]; [5],2650 mg/kg
same,LD50 at 144 h,[2]; [7],2650 mg/kg
same,therapeutic effect in experimental asthma,[4],shows a therapeutic effect
same,minimal effective dose,[3]; [6],1.56 mg/kg
same,minimal effective dose,[3]; [8],1.56 mg/kg
"CCCCCCCOc1cccc2cc(-c3nnn[nH]3)c(=O)oc12 [Example 11, 8-n-Heptyloxy-3-(1H-tetrazol-5-yl)coumarin]",LD50 at 144 h,[2]; [7],2000 to 3000 mg/kg
same,minimal effective dose,[3]; [9],1.56 mg/kg
"CCCCCCCCCOc1cccc2cc(-c3nnn[nH]3)c(=O)oc12 [Example 12, 8-n-Nonyloxy-3-(1H-tetrazol-5-yl)coumarin]",LD50 at 144 h,[2]; [7],2000 to 3000 mg/kg
same,minimal effective dose,[3]; [9],6.25 mg/kg
"CCCCCCCCCCCCOc1cccc2cc(-c3nnn[nH]3)c(=O)oc12 [Example 13, 8-n-Dodecyloxy-3-(1H-tetrazol-5-yl)coumarin]",LD50 at 144 h,[2]; [7],2000 to 3000 mg/kg
same,minimal effective dose,[3]; [9],6.25 mg/kg
"CCCCCCCCCCCCCCCOc1cccc2cc(-c3nnn[nH]3)c(=O)oc12 [Example 14, 8-n-Pentadecyloxy-3-(1H-tetrazol-5-yl)coumarin]",LD50 at 144 h,[2]; [7],2000 to 3000 mg/kg
same,minimal effective dose,[3]; [9],6.25 mg/kg
"CCCCCCCCCCCCCCCCCCOc1cccc2cc(-c3nnn[nH]3)c(=O)oc12 [Example 15, 8-n-Octadecyloxy-3-(1H-tetrazol-5-yl)coumarin]",LD50 at 144 h,[2]; [7],2000 to 3000 mg/kg
same,minimal effective dose,[3]; [9],6.25 mg/kg
